{"source": "patent US20090162413A1", "about": "(priority 1998, published 2009)", "key": {"[1]": {"assay": "release of zotarolimus from PC polymer coated 316L stainless steel coupons (Example 4)", "format": "physicochemical", "excerpt": "The purpose of this example is to determine the rate of release of the zotarolimus drug from 316L Electropolished Stainless Steel Coupons coated with a biocompatible polymer containing phosphorylcholine side groups.\nRubber septa from lids from HPLC vials were removed from the vials and placed into glass vials so that the “Teflon” side faced up. These septa served as supports for the test samples. The test samples were 316L stainless steel coupons that had been previously coated with a biocompatible polymer containing phosphorylcholine side groups (PC polymer). Coronary stents are commonly made of 316L stainless steel and can be coated with the PC polymer to provide a depot site for loading drugs. The coated coupons, which serve to simulate stents, were placed onto the septa. By using a glass Hamilton Syringe, a solution of zotarolimus and ethanol (10 μl) was applied to the surface of each coupon. The solution contained zotarolimus (30.6 mg) dissolved in 100% ethanol (3.0 ml). The syringe was cleaned with ethanol between each application. The cap to the glass vial was placed on the vial loosely, thereby assuring proper ventilation. The coupon was allowed to dry for a minimum of 1.5 hours. Twelve (12) coupons were loaded in this way—six being used to determine the average amount of drug loaded onto the device and six being used to measure the time needed to release the drug from the devices.\nTo determine the total amount of zotarolimus loaded onto a coupon, a coupon was removed from the vial and placed into 50/50 acetonitrile/0.01M phosphate buffer (pH 6.0, 5.0 ml). The coupon was placed onto a 5210 Branson sonicator for one hour. The coupon was then removed from the solution, and the solution was assayed by HPLC.\nThe time release studies were performed by immersing and removing the individual coupons from fresh aliquots (10.0 ml) of 0.01 M phosphate buffer at a pH of 6.0 at each of the following time intervals −5, 15, 30 and 60 minutes. For the remaining time points of 120, 180, 240, 300, 360 minutes, volumes of 5.0 ml of buffer were used. To facilitate mixing during the drug release phase, the samples were placed onto an Eberbach shaker set at low speed. All solution aliquots were assayed by HPLC after the testing of the last sample was completed.\nThe HPLC analysis was performed with a Hewlett Packard series 1100 instrument having the following settings: […]"}, "[2]": {"tested_on": "human coronary artery endothelial cells (hCaEC)", "assay": "3H-thymidine uptake proliferation assay, hCaEC", "format": "cell-based", "conditions": "Homo sapiens, Endothelial cell; read-out: hCaEC IC50 Mean ± SEM", "description": "Experiments were performed to investigate interactions between zotarolimus (ABT-578) and paclitaxel when administered in combination. The effects of paclitaxel and zotarolimus on the anti-proliferative activity of human coronary artery smooth muscle ([…]) and endothelial […] determined using an in vitro proliferation assay. The proliferation and migration of vascular smooth muscle cells into the vascular neointima is a characteristic pathologic response seen in restenotic lesions (Lafont and Libby, 1998). As a result, in vitro assays which specifically measure the anti-proliferative activity of candidate anti-restenotic compounds on human coronary artery smooth muscle and endothelial cells predict potential anti-restenotic activity in vivo. To determine if paclitaxel attenuated or augmented the activity of zotarolimus the effect of paclitaxel and zotarolimus alone and in combination on growth-factor induced proliferation was determined. Data were analyzed for additivity using an isobologram approach and a combination index analysis. An isobologram is a Cartesian plot of pairs of doses that, in combination, yield a specified level of effect. It is a convenient way of graphically displaying results of drug-combination and similar studies, because paired values of experimental points that fall below or above the line connecting the axial points indicate synergistic and non-synergistic interactions, respectively. Cell proliferation was monitored by following incorporation of ^3H-thymidine into newly synthesized DNA of cells stimulated by serum and growth factors. Exponentially growing […] were seeded into 96-well flat bottom tissue culture plates at 5,000 cells/well (10,000 cells/well for […]). The cells were allowed to attach overnight. […] PerkinElmer; Wellesley; MA) was added to each filter well and the plates were counted using a TopCount microplate scintillation counter (PerkinElmer). […] The concentration eliciting a specific anti-proliferative effect was determined using a four-parameter equation (equation 1): […]"}}}
{"smiles": "CO[C@H]1C[C@@H]2CC[C@@H](C)[C@@](O)(O2)C(=O)C(=O)N2CCCC[C@H]2C(=O)O[C@H]([C@H](C)C[C@@H]2CC[C@H](n3cnnn3)[C@H](OC)C2)CC(=O)[C@H](C)/C=C(\\C)[C@@H](O)[C@@H](OC)C(=O)[C@H](C)C[C@H](C)/C=C/C=C/C=C/1C", "note": "[zotarolimus]", "values": [{"measurement": "Percent Release", "setting": "[1]; 0.01 M phosphate buffer pH 6.0, 0.00 min", "result": 0.00}, {"measurement": "Percent Release", "setting": "[1]; 0.01 M phosphate buffer pH 6.0, 5.00 min", "result": 1.87}, {"measurement": "Percent Release", "setting": "[1]; 0.01 M phosphate buffer pH 6.0, 15.00 min", "result": 2.97}, {"measurement": "Percent Release", "setting": "[1]; 0.01 M phosphate buffer pH 6.0, 30.00 min", "result": 3.24}, {"measurement": "Percent Release", "setting": "[1]; 0.01 M phosphate buffer pH 6.0, 60.00 min", "result": 3.29}, {"measurement": "Percent Release", "setting": "[1]; 0.01 M phosphate buffer pH 6.0, 180.00 min", "result": 4.36}, {"measurement": "Percent Release", "setting": "[1]; 0.01 M phosphate buffer pH 6.0, 240.00 min", "result": 4.37}, {"measurement": "Percent Release", "setting": "[1]; 0.01 M phosphate buffer pH 6.0, 300.00 min", "result": 6.34}, {"measurement": "Percent Release", "setting": "[1]; 0.01 M phosphate buffer pH 6.0, 360.00 min", "result": 7.88}, {"measurement": "IC50", "setting": "[2]", "result": "3.6 ± 0.2", "unit": "nM"}]}
